Here are results for ten molecules from patent US7247736B2, “Method of identifying inhibitors of DHODH” (4SC AG, priority 2002, dated 2007).

The target of this experiment is T1, human DHODH(Met30-Arg396) (Homo sapiens, UniProt Q02127).
T1 construct: N-terminally truncated human DHODH(Met30-Arg396); made in house; host or cells: E. coli BL21(DE3)Gold, pET-19b
Kind of experiment: X-ray co-crystal structure, inhibitor binding mode. The conditions noted are these: for binding mode in crystal structure: carboxylic acid group, subsite 2 vs subsite 3; for enantiomer bound in refined structure: racemic mixture used for crystallization. As for the experimental part:
The hanging drops were incubated against 0.5 mL reservoir of 0.1 M acetate pH 4.8, 2.4-2.6 M ammonium sulfate and 30% glycerol. The crystallization conditions were screened by variation of pH versus ammonium sulfate concentration using a small grid screen (see FIG. 2):
The racemic mixtures were used for crystallization experiments.
Crystals were harvested with pre-mounted loops of size 0.5 mm (Hampton Research) and were flash frozen directly in the cryo stream of the measurement device.
Data were collected at the beamline BW6 at the DESY Hamburg on a MAR-CCD camera. […] The crystals were maintained at a temperature of 100 K during data collection.
[…] At this stage 5% or 10% (the “test set”) of unique reflections were flagged for cross validation to calculate the free R-factor (Rfree) during the refinement process.
(§1) The free accessible pdb entry 1D3G.pdb was used as a search model. The ligands brequinar and DDQ as well as all of the water molecules were removed prior to the MR search. The search model included the polypeptide chain of hDHODH(Met30-Arg396), one molecule of orotate, one molecule of the cofactor flavinmononucleotide (FMN) and one acetate molecule which was present under the crystallization conditions.
In a first round of refinement the MR model was subjected to rigid body refinement and a slow cooling simulated annealing protocol using a maximum likelihood target to remove model bias (Accelrys Inc. CNX program suite, CNX2002). Additionally, an individual b-factor refinement was carried out using standard CNX protocols.
After energy minimization the compound was built into the electron density manually. […] After an additional round of model building and water picking using CNX another complete round of refinement was performed.
as §1
In a first round of refinement the MR model was subjected to rigid body refinement and a slow cooling simulated annealing protocol using a maximum likelihood target to remove model bias (Accelrys Inc. CNX program suite, CNX2002). Additionally, an individual b-factor refinement was carried out using standard CNX-protocols.
Both compounds were energy minimized and built into the electron density manually. […] After an additional round of model building and water picking using CNX, another complete round of refinement was performed.

“Also recorded” adds a separate entry of the source.

T1 sequence (Q02127 29-395): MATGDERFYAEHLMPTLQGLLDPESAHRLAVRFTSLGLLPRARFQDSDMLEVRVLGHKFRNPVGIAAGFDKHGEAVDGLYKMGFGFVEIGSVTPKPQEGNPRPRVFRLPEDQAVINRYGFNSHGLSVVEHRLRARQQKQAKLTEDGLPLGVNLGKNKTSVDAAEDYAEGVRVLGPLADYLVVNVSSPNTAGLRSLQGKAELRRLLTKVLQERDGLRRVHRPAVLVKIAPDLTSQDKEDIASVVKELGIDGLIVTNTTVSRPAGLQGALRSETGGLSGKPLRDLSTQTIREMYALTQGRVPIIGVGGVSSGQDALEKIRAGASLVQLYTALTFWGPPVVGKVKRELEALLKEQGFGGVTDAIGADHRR

Regarding `COc1cccc(-c2ccc(NC(=O)C3=C(C(=O)O)CCC3)c(F)c2)c1` [Compound 1], the “binding mode in crystal structure” value was “non-brequinar-like”. Still for that read-out and setting: with `O=C(O)C1=C(C(=O)Nc2c(F)cc(-c3cccc(OC(F)(F)F)c3)cc2F)CCC1` [Compound 2] the entry was “both a brequinar-like and a non-brequinar-like binding mode; also recorded: both the brequinar-like and non-brequinar-like binding mode”; with `O=C(O)C1=C(C(=O)Nc2c(F)c(F)c(-c3cccc(OC(F)(F)F)c3)c(F)c2F)CCC1` [Compound 3], “both the brequinar-like and non-brequinar-like binding mode”; with `O=C(O)C1=C(C(=O)Nc2ccc(-c3cccc(OC(F)(F)F)c3)cc2F)CCC1` [Compound 4], “non-brequinar-like”. Take `O=C(Nc1ccc(-c2cccc(OC(F)(F)F)c2)cc1F)C1=CCCC1C(=O)O` (stereo not drawn) [Compound 5]: the “binding mode in crystal structure” value is “non-brequinar-like” and the “enantiomer bound in refined structure” value is on record as “R-form”.

In the case of `COc1cccc(-c2ccc(NC(=O)C3CCCC3C(=O)O)c(F)c2)c1` (stereo not drawn) [Compound 6], the “binding mode in crystal structure” value was “both a brequinar-like and a non-brequinar-like binding mode”; the “enantiomer bound in refined structure” value is reported as “R-form”. Take `COc1cccc(-c2ccc(NC(=O)C3=C(C(=O)O)CCC3O)c(F)c2)c1` (stereo not drawn) [Compound 7]: the “binding mode in crystal structure” value was “non-brequinar-like”. With `COc1cccc(-c2ccc(NC(=O)C3=C(C(=O)O)C(O)CC3)c(F)c2)c1` (stereo not drawn) [Compound 8], the “binding mode in crystal structure” value was “non-brequinar-like”. Take `O=C(Nc1c(F)cc(-c2cccc(OC(F)(F)F)c2)cc1F)c1ccsc1C(=O)O` [Compound 9]: the “binding mode in crystal structure” value is “pure brequinar-like binding mode”. In the case of `COc1cccc(-c2ccc(NC(=O)c3ccsc3C(=O)O)c(F)c2)c1` [Compound 10], the “binding mode in crystal structure” value is “both a brequinar-like and a non-brequinar-like binding mode; also recorded: both alternatives”.
